In patent US10106534B2 (CELGENE QUANTICEL RESEARCH, INC., priority 2014, dated 2018):

Tests used:
[1] = molecular target: JMJD2C (Homo sapiens (Human), UniProt Q9H3R0); experiment: In vitro enzyme inhibition assay for JMJD2C activity (TR-FRET); format: biochemical
How it was run: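 Demethylation product H3K9me2 quantified by TR-FRET ratio 665/615 after EDTA stop and 1 h with Eu-anti-H3K9me2 and streptavidin-APC; IC50 by curve fit. Reaction: 0.3 nM JMJD2C (AA 2-372, baculovirus), 2 μM α-ketoglutarate, 300 nM biotin-H3K9me3 peptide, pH 7.3 HEPES with Fe(II)/ascorbate, 30 min room temperature.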

[2] = molecular target: JMJD3 (Homo sapiens, UniProt O15054); experiment: In vitro enzyme inhibition assay for JMJD3 activity (TR-FRET); format: biochemical
Protocol: This assay determines the ability of a test compound to inhibit JMJD3 demethylase activity.
The enzymatic assay of JMJD3 activity is based upon Time Resolved-Fluorescence Resonance Energy Transfer (TR-FRET) detection. […] Reaction product was determined quantitatively by TR-FRET after the addition of detection reagent Phycolink Streptavidin-allophycocyanin (Prozyme) and Europium-anti-di-methylated histone H3 lysine 27 (H3K27me2) antibody (PerkinElmer) in the presence of 5 mM EDTA in LANCE detection buffer (PerkinElmer) at a final concentration of 50 nM and 1 nM, respectively.
The reaction mixture was incubated at room temperature for 30 minutes, and terminated by the addition of 6 μL of 5 mM EDTA in LANCE detection buffer containing 100 nM Phycolink Streptavidin-allophycocyanin and 2 nM Europium-anti-H3K27me2 antibody.

[3] = tested on: KYSE-150 esophageal carcinoma cell line; experiment: In vitro cell-based assay: cellular proliferation via BrdU incorporation (ELISA); design: species or system human; conditions: Homo sapiens, KYSE-150, 168 hours compound incubation
How it was run: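 BrdU incorporation during S-phase, detected colorimetrically at 450 nm by peroxidase ELISA, measured proliferation after 168 h compound exposure.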

JMJD2C, sequence (Q9H3R0 2-372): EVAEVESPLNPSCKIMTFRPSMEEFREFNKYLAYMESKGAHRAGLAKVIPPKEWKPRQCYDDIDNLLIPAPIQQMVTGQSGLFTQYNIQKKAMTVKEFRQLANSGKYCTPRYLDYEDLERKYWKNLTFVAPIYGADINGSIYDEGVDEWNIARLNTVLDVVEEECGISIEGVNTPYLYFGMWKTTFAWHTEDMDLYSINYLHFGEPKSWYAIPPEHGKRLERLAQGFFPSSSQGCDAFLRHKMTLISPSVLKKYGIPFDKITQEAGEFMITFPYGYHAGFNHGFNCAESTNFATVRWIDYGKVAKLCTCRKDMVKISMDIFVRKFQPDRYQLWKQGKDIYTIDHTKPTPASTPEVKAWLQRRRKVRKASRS

SMILES	IC50 [1] [nM]	IC50 [2] [nM]	IC50 [3] [nM]
O=C(O)c1ccncc1NCC1CCCc2nc(-c3ccccc3)ccc21 (stereo not drawn) [Example 25]	100 to 1000	100 to 1000	> 10000
CN(c1ccccc1)c1ccc2c(c1)CCC[C@H]2CNc1nnccc1C(=O)O [Example 191, 3-({[(1R)-6-[methyl(phenyl)amino]-1,2,3,4-tetrahydronaphthalen-1-yl]methyl}amino)pyridazine-4-carboxylic acid]	100 to 1000	1000 to 10000	≤ 100
CN(c1ccc(C2CCOCC2)cc1)c1ccc2c(c1)OCC[C@H]2CNc1cnccc1C(=O)O [Example 202, 3-({[(4R)-7-{methyl[4-(oxan-4-yl)phenyl]amino}-3,4-dihydro-2H-1-benzopyran-4-yl]methyl}amino)pyridine-4-carboxylic acid]	100 to 1000	1000 to 10000	≤ 100
O=C(O)c1ccncc1NCC1CCOc2cc(-c3ccoc3)ccc21 (stereo not drawn) [Example 28, 3-({[7-(furan-3-yl)-3,4-dihydro-2H-1-benzopyran-4-yl]methyl}amino)pyridine-4-carboxylic acid]	100 to 1000	< 100	1000 to 10000
CN(c1ccc2c(c1)OCC[C@H]2CNc1cnccc1C(=O)O)c1ccc(C2CC2)cn1 [Example 153, 3-({[(4R)-7-[(5-cyclopropylpyridin-2-yl)(methyl)amino]-3,4-dihydro-2H-1-benzopyran-4-yl]methyl}amino)pyridine-4-carboxylic acid]	100 to 1000	1000 to 10000	≤ 100
CN(c1ccc(OC(F)F)cc1)c1ccc2c(c1)CCC[C@H]2CNc1cnccc1C(=O)O [Example 184, 3-({[(1R)-6-{[4-(difluoromethoxy)phenyl](methyl)amino}-1,2,3,4-tetrahydronaphthalen-1-yl]methyl}amino)pyridine-4-carboxylic acid]	100 to 1000	1000 to 10000	≤ 100
O=C(O)c1ccncc1NCC1CCOc2cc(N3CCc4ccccc43)ccc21 (stereo not drawn) [Example 17, 3-({[7-(2,3-dihydro-1H-indol-1-yl)-3,4-dihydro-2H-1-benzopyran-4-yl]methyl}amino)pyridine-4-carboxylic acid]	100 to 1000	1000 to 10000	100 to 1000
Cc1noc(C)c1N(C)c1ccc2c(c1)CCC[C@H]2CNc1cnccc1C(=O)O [Example 166, 3-({[(1R)-6-[(dimethyl-1,2-oxazol-4-yl)(methyl)amino]-1,2,3,4-tetrahydronaphthalen-1-yl]methyl}amino)pyridine-4-carboxylic acid]	100 to 1000	1000 to 10000	> 10000
CN(c1ccc(OC(F)F)cc1)c1ccc2c(c1)OCC[C@H]2CNc1cnccc1C(=O)O [Example 190, 3-({[(4R)-7-{[4-(difluoromethoxy)phenyl](methyl)amino}-3,4-dihydro-2H-1-benzopyran-4-yl]methyl}amino)pyridine-4-carboxylic acid]	100 to 1000	1000 to 10000	≤ 100
CN(c1ccc(-n2ccnc2)cc1)c1ccc2c(c1)CCC[C@H]2CNc1cnccc1C(=O)O [Example 193, 3-({[(1R)-6-{[4-(1H-imidazol-1-yl)phenyl](methyl)amino}-1,2,3,4-tetrahydronaphthalen-1-yl]methyl}amino)pyridine-4-carboxylic acid]	100 to 1000	1000 to 10000	100 to 1000
CN(c1ccc(N2CCOCC2)cc1)c1ccc2c(c1)CCC[C@H]2CNc1cnccc1C(=O)O [Example 170, 3-({[(1R)-6-{methyl[4-(morpholin-4-yl)phenyl]amino}-1,2,3,4-tetrahydronaphthalen-1-yl]methyl}amino)pyridine-4-carboxylic acid]	100 to 1000	1000 to 10000	≤ 100
C#Cc1ccc(N(C)c2ccc3c(c2)OCC[C@H]3CNc2cnccc2C(=O)O)cc1 [Example 126, 3-({[(4R)-7-[(4-ethynylphenyl)(methyl)amino]-3,4-dihydro-2H-1-benzopyran-4-yl]methyl}amino)pyridine-4-carboxylic acid]	100 to 1000	1000 to 10000	100 to 1000
CN(c1ccccc1)c1ccc2c(c1)OCC[C@H]2CNc1cnccc1C(=O)O [Example 18, 3-({[(4R)-7-[methyl(phenyl)amino]-3,4-dihydro-2H-1-benzopyran-4-yl]methyl}amino)pyridine-4-carboxylic acid]	100 to 1000	100 to 1000	≤ 100
Cc1sccc1-c1ccc2c(c1)OCC[C@H]2CNc1cnccc1C(=O)O [Example 37, 3-({[(4R)-7-(2-methylthiophen-3-yl)-3,4-dihydro-2H-1-benzopyran-4-yl]methyl}amino)pyridine-4-carboxylic acid]	1000 to 10000	1000 to 10000	100 to 1000
CN(c1ccc(O)cc1)c1ccc2c(c1)CCC[C@H]2CNc1cnccc1C(=O)O [Example 165, 3-({[(1R)-6-[(4-hydroxyphenyl)(methyl)amino]-1,2,3,4-tetrahydronaphthalen-1-yl]methyl}amino)pyridine-4-carboxylic acid]	100 to 1000	1000 to 10000	1000 to 10000
CN(c1ccc(OCC2CC2)cc1)c1ccc2c(c1)CCC[C@H]2CNc1cnccc1C(=O)O [Example 209, 3-({[(1R)-6-{[4-(cyclopropylmethoxy)phenyl](methyl)amino}-1,2,3,4-tetrahydronaphthalen-1-yl]methyl}amino)pyridine-4-carboxylic acid]	100 to 1000	1000 to 10000	≤ 100
CN(c1ccc(CC(F)(F)F)cc1)c1ccc2c(c1)OCC[C@H]2CNc1cnccc1C(=O)O [Example 192, 3-({[(4R)-7-{methyl[4-(2,2,2-trifluoroethyl)phenyl]amino}-3,4-dihydro-2H-1-benzopyran-4-yl]methyl}amino)pyridine-4-carboxylic acid]	100 to 1000	1000 to 10000	≤ 100
O=C(O)c1ccncc1NC[C@@H]1CCOc2cc(-c3ccsc3)ccc21 [Example 34, 3-({[(4R)-7-(thiophen-3-yl)-3,4-dihydro-2H-1-benzopyran-4-yl]methyl}amino)pyridine-4-carboxylic acid]	100 to 1000	1000 to 10000	100 to 1000
Cc1ccc(N(C)c2ccc3c(c2)CCC[C@H]3CNc2cnccc2C(=O)O)nc1 [Example 122, 3-({[(1R)-6-[methyl(5-methylpyridin-2-yl)amino]-1,2,3,4-tetrahydronaphthalen-1-yl]methyl}amino)pyridine-4-carboxylic acid]	100 to 1000	1000 to 10000	≤ 100
O=C(O)c1ccncc1NC[C@@H]1CCOc2cc(-c3ccccc3Cl)ccc21 [Example 40, 3-({[(4R)-7-(2-chlorophenyl)-3,4-dihydro-2H-1-benzopyran-4-yl]methyl}amino)pyridine-4-carboxylic acid]	100 to 1000	1000 to 10000	≤ 100
Cc1ccc(N(C)c2ccc3c(c2)CCC[C@H]3CNc2cnccc2C(=O)O)cc1 [Example 140, 3-({[(1R)-6-[methyl(4-methylphenyl)amino]-1,2,3,4-tetrahydronaphthalen-1-yl]methyl}amino)pyridine-4-carboxylic acid]	100 to 1000	1000 to 10000	≤ 100
O=C(O)c1ccncc1NC[C@@H]1CCOc2cc(Sc3ccc(F)cc3)ccc21 [Example 55, 3-({[(4R)-7-[(4-fluorophenyl)sulfanyl]-3,4-dihydro-2H-1-benzopyran-4-yl]methyl}amino)pyridine-4-carboxylic acid]	100 to 1000	1000 to 10000	100 to 1000
CN(c1ccc(N2CCC2)cc1)c1ccc2c(c1)OCC[C@H]2CNc1cnccc1C(=O)O [Example 183, 3-({[(4R)-7-{[4-(azetidin-1-yl)phenyl](methyl)amino}-3,4-dihydro-2H-1-benzopyran-4-yl]methyl}amino)pyridine-4-carboxylic acid]	100 to 1000	1000 to 10000	≤ 100
CN(c1ccc(F)cc1)c1ccc2c(c1)OCC[C@H]2CNc1cnccc1C(=O)O [Example 21, 3-({[(4R)-7-[(4-fluorophenyl)(methyl)amino]-3,4-dihydro-2H-1-benzopyran-4-yl]methyl}amino)pyridine-4-carboxylic acid]	100 to 1000	1000 to 10000	≤ 100
CC(C)c1ccc(N(C)c2ccc3c(c2)OCC[C@H]3CNc2cnccc2C(=O)O)cc1 [Example 187, 3-({[(4R)-7-{methyl[4-(propan-2-yl)phenyl]amino}-3,4-dihydro-2H-1-benzopyran-4-yl]methyl}amino)pyridine-4-carboxylic acid]	100 to 1000	1000 to 10000	≤ 100
COc1ccc2c(c1C)CCC[C@H]2CNc1cnccc1C(=O)O [Example 99, 3-({[(1R)-6-methoxy-5-methyl-1,2,3,4-tetrahydronaphthalen-1-yl]methyl}amino)pyridine-4-carboxylic acid]	100 to 1000	100 to 1000	1000 to 10000
